{"source": "patent US20130102829A1", "about": "“METHOD FOR TREATING OSTEOSARCOMA BY BORON NEUTRON CAPTURE THERAPY USING BORIC ACID AS A BORON DRUG” (National Tsing Hua University, priority 2011, published 2013)", "key": {"[1]": {"tested_on": "brain tumors", "conditions": "1950s; cited from earlier work"}, "[2]": {"conditions": "rat, in vivo", "experimental": "Before measuring boron concentration of a sample, it needs to undergo microwave digestion first. A sample was initially placed into a Teflon high-pressure digestion vessel, then added with 3 mL of concentrated nitric acid (14N, 65%) and 0.5 mL of hydrogen peroxide (30-35%), and the vessel was sealed before placing the vessel into a microwave digestion system (MLS 1200 Milestone, Italia) for sample decomposition. […] The sample subsequently turned into a clear solution after complete digestion. After diluting the sample with deionized water, an Inductively Coupled Plasma Atomic Emission Spectrometer (ICP-AES, OPTIMA 2000 DV, PerkinElmer Instruments) was used to measure the boron concentration of the sample. For the conditions of the analysis, the temperature of argon plasma was set at 6000-7000 K; the analytical wavelength was set at 249.773 nm, and the liquid uptake rate was set at approximately 2 mL/min; the operating voltage after the formation of plasma was set at 40 V.\n(§1) Male SD rats were the animals used in this osteosarcoma-bearing animal-model. Prior to the experiments, the rats were bred in cage for at least one week at temperature of 22° C. and humidity of 30-70%. An artificial lighting condition (12 h on/12 h off) was maintained in the room. The animal feeds and water were unlimited. The tumor cells used in the experiments were UMR-106 cell strain (Rat osteogenic sarcoma cell line, BCRC No: 60270). Firstly, obtained the UMR-106 tumor cells in exponential growth phase from a culture flask, then centrifuged the UMR-106 cells obtained by subculture method, followed by re-suspending the cells in a media without serum or antibiotics, and dividing the suspension into separate centrifuge microtubes. Placed the Matrigel Matrix (BD Bioscience), a syringe, and the centrifuge microtubes with the cell suspension on ice to be cooled for later use. Before implanting the tumor cells, the UMR-106 cell suspension was mixed with an equal amount of Matrigel first.\nA SD rat was firstly anesthetized by using 2.5% Isoflurane (Halocarbon Laboratories, River Edge, N.J.), followed by shaving and disinfecting a surgical area on the rat for implanting the tumor cells. […] After the implantation, the rats were released back into the cage, and their activities and body conditions were monitored continuously. […]\nUsing the boric acid aqueous solution as a boron drug to do the animal experiments, drugs were administered to the osteosarcoma-bearing rats (six-week old, approximately 200-250 g in body weight) via tail vein injection, and the dose of the boric acid drugs was: 25 mg ^10B/kg BW. The rats' body weights needed to be measured and recorded before the experiments for preparing the boric acid aqueous solution. […]"}, "[3]": {"tested_on": "UMR-106 osteosarcoma", "experimental": "as §1\nA SD rat was firstly anesthetized by using 2.5% Isoflurane (Halocarbon Laboratories, River Edge, N.J.), followed by shaving and disinfecting a surgical area on the rat for implanting the tumor cells. A 250 μL micro-syringe was fitted with a 25 gauge needle before extracting 200 μL of a mixed solution containing the cells and Matrigel (10×10^6 cells/200 μL). Then the needle was used to penetrate a SD rat's distal femur, which is the femoral condyle; the syringe was rotated in order to penetrate the femur and the spongy bone, and ensured it had protruded out of the femur by touching with a finger. Subsequently, 100 μL of the tumor cell solution was slowly injected into the extra-skeletal muscular tissues, and 100 μL of the solution was injected into the epiphysis and the metaphysis of the femur (at 0.5 cm deep from skin surface) after slowly retracting the needle. After the implantation, the rats were released back into the cage, and their activities and body conditions were monitored continuously. The animals were immunosuppressed by daily administration of cyclosporin A (10 mg/kg, Sandimmun®, Novartis) for total 7 days from the 3rd to the 9th day after UMR-106 cells injection.\n(§2) The experimental animals were divided into three groups; a tumor control group (in which the rats received implantation of tumor cells but not BNCT treatment), a high-dose BNCT group, and a low-dose BNCT group.\nAfter the SD rats were implanted with tumor cells for 11 days, the BNCT treatment and subsequent evaluation of biological effects were commenced. Considering the pharmacokinetics and the changes in boron concentration distribution in the rats after the drug administration, BNCT irradiation was carried out at adequate times after administering boric acid. The rats were anesthetized by gas, then intravenously injected with a boric acid of 25 mg ^10B/kg BW. Fifteen minutes before the neutron irradiation, the rats were injected with Atropine and Zoletil to allow the rats to be anesthetized longer. Each of the rats was placed on a fixing frame with its tumor-bearing area close to the beam aperture of the Tsing Hua Open-pool Reactor (THOR), and then neutron irradiation was performed at a specific neutron flux and irradiation time to achieve a certain total neutron fluence. For the reactor power at 1.2 MW, the neutron fluxes at the central beam exit were 1.34×10^8, 1.07×10^9, and 7.66×10^7 n/cm^2/sec, respectively for thermal, epithermal, and fast neutrons. [Liu, Y. H., Tsai, P. E., Liu, H. M., Jiang, S. H., “Characterization of a BNCT beam using neutron activation and indirect neutron radiography,” Radiation Measurements, vol. 45, pp. 1167-1170, 2010.] After the irradiation, the actual irradiation time and reactor power were adjusted by using the on-line neutron monitoring system for THOR."}, "[4]": {"conditions": "rat, in vivo", "text": "as §2\nAfter the SD rats were implanted with tumor cells for 11 days, the BNCT treatment and subsequent evaluation of biological effects were commenced. Considering the pharmacokinetics and the changes in boron concentration distribution in the rats after the drug administration, BNCT irradiation was carried out at adequate times after administering boric acid. The rats were anesthetized by gas, then intravenously injected with a boric acid of 25 mg ^10B/kg BW. Fifteen minutes before the neutron irradiation, the rats were injected with Atropine and Zoletil to allow the rats to be anesthetized longer. […]\nBoric acid (25 mg 10B/kg) were injected into the tumor-bearing rats via the tail vein before the irradiation. […] Consequently, the doses received in each of the organs were calculated according to the actual irradiation times and powers, along with simulations of dose rates in the rats' organs from the MCNP application. […]", "remark": "listed apart in the source"}, "[5]": {"conditions": "60 mg of ^10B stable isotope per kilogram of human body weight; cited from earlier work"}, "[6]": {"conditions": "in vivo; cited from earlier work"}, "[7]": {"conditions": "oral administration of BA to rats or human; cited from earlier work"}, "[8]": {"conditions": "in vivo and in vitro studies; binding to the cis-hydroxy groups; cited from earlier work"}, "[9]": {"tested_on": "Glioblastoma multiforme", "conditions": "in vivo; cited from earlier work"}}, "note": "Where two headings read alike, the source gives them in different places."}
{"compound": "O=BOB(O)OB(O)OB=O", "note": "[Borax, sodium borate]", "values": [{"measurement": "outcome of BNCT clinical trials", "setting": "[1]", "value": "unsuccessful"}]}
{"compound": "OB(O)O", "note": "[boric acid]", "values": [{"measurement": "boron concentration of extra-skeletal tumor tissues relative to blood", "setting": "[2]; male, Sprague-Dawley, 1 h", "value": "approximately 1.2 times"}, {"measurement": "boron concentration of tumor-bearing distal femurs relative to blood", "setting": "[2]; male, Sprague-Dawley, 1 h", "value": "approximately 2.1 times"}, {"measurement": "boron concentration of tumor-bearing proximal femurs relative to blood", "setting": "[2]; male, Sprague-Dawley, 1 h", "value": "approximately 2.6 times"}, {"measurement": "boron concentrations in the soft tissues compared with blood", "setting": "[2]", "value": "similar"}, {"measurement": "histopathological finding of extra-skeletal tumor region", "setting": "[3]; 80th day after BNCT, hematoxylin and eosin stain", "value": "no-viable tumor cells were found"}, {"measurement": "reduction of the sizes of the tumors", "setting": "[3]; 80th day after the irradiation", "value": "~90", "unit": "%"}, {"measurement": "bone healing on radiographs", "setting": "[3]; high dose day 5 to 16, low dose day 5 to 23 after BNCT", "value": "the bone appeared to be healing gradually"}, {"measurement": "relative tumor area", "setting": "[3]; high-dose BNCT group (11.0 Gy), 5th day after BNCT, area divided by area on day of BNCT", "value": 1.1}, {"measurement": "relative tumor area", "setting": "[3]; high-dose BNCT group, 10th day after BNCT", "value": 0.7}, {"measurement": "relative tumor area", "setting": "[3]; high-dose BNCT group, 30th day after BNCT", "value": 0.2}, {"measurement": "relative tumor area", "setting": "[3]; high-dose BNCT group, 60th day after BNCT", "value": 0.2}, {"measurement": "relative tumor area", "setting": "[3]; high-dose BNCT group, 80th day after BNCT", "value": 0.1}, {"measurement": "relative tumor area", "setting": "[3]; low-dose BNCT group (5.8 Gy), 5th day after BNCT", "value": 1.3}, {"measurement": "relative tumor area", "setting": "[3]; low-dose BNCT group, 10th day after BNCT", "value": 1.1}, {"measurement": "relative tumor area", "setting": "[3]; low-dose BNCT group, 30th day after BNCT", "value": 0.3}, {"measurement": "relative tumor area", "setting": "[3]; low-dose BNCT group, 60th day after BNCT", "value": 0.2}, {"measurement": "relative tumor area", "setting": "[3]; low-dose BNCT group, 80th day after BNCT", "value": 0.2}, {"measurement": "gastro-intestinal reactions, weight loss and other discomfort after the irradiation", "setting": "[4]", "value": "temporary side-effects"}, {"measurement": "adverse effect of an injection dose of boric acid", "setting": "[5]", "value": "no permanent adverse effect"}, {"measurement": "ratio of boron concentrations in blood and soft tissue", "setting": "[6]", "value": "one"}, {"measurement": "factor by which boron concentrations in bones exceeded those in blood", "setting": "[7]", "value": 4}, {"measurement": "affinity with hydroxyapatite of bone", "setting": "[8]", "value": "strong affinity"}]}
{"compound": "borocaptate sodium [BSH]", "values": [{"measurement": "ratio of boron concentrations between tumors and normal tissues", "setting": "[9]", "value": "does not result in higher ratio"}]}
